The nature of this assay: Inhibition of FCgamma receptor in human PBMC assessed as inhibition of opsonized RBC phagocytosis incubated for 1 hr prior to RBC addition measured after 2 hrs by monocyte monolayer assay.

Turning to `Cc1cc(SSc2cc(C)nn2-c2ccccc2)n(-c2ccccc2)n1`, the IC50 is 100 nM.

The record behind these values is BindingDB's records for doi:10.1016/j.bmcl.2013.02.064 (Toronto General Research Institute, 2013).
